Experiment: isobaric coefficient of expansion
Details: Liquid, Micro DSCII

CCCCn1cc[n+](C)c1.COS(=O)(=O)[O-] [1-butyl-3-methylimidazolium methyl sulfate]
isobaric coefficient of expansion
Details	5000 kPa	10000 kPa	15000 kPa	20000 kPa	25000 kPa	30000 kPa	35000 kPa	40000 kPa	45000 kPa	50000 kPa
278.15 K	0.000563 1/K	0.000556 1/K	0.00055 1/K	0.000545 1/K	0.00054 1/K	0.000535 1/K	0.000531 1/K	0.000527 1/K	0.000521 1/K	0.000516 1/K
288.15 K	0.000557 1/K	0.00055 1/K	0.000543 1/K	0.000539 1/K	0.000537 1/K	0.00053 1/K	0.000527 1/K	0.00052 1/K	0.000514 1/K	0.000513 1/K
298.15 K	0.000549 1/K	0.000547 1/K	0.000539 1/K	0.000533 1/K	0.000529 1/K	0.000524 1/K	0.000518 1/K	0.000513 1/K	0.00051 1/K	0.000507 1/K
308.15 K	0.000544 1/K	0.000538 1/K	0.000533 1/K	0.000527 1/K	0.000522 1/K	0.000517 1/K	0.000512 1/K	0.000509 1/K	0.000504 1/K	0.0005 1/K
318.15 K	0.000538 1/K	0.000534 1/K	0.00053 1/K	0.000522 1/K	0.000517 1/K	0.000513 1/K	0.000508 1/K	0.000504 1/K	0.000499 1/K	0.000494 1/K
328.15 K	0.000533 1/K	0.000529 1/K	0.000524 1/K	0.000519 1/K	0.000512 1/K	0.000508 1/K	0.000503 1/K	0.000498 1/K	0.000493 1/K	0.000489 1/K
338.15 K	0.00053 1/K	0.000525 1/K	0.000521 1/K	0.000514 1/K	0.000508 1/K	0.000506 1/K	0.000499 1/K	0.000496 1/K	0.000491 1/K	0.000489 1/K
348.15 K	0.000527 1/K	0.000524 1/K	0.000517 1/K	0.000512 1/K	0.000506 1/K	0.000502 1/K	0.000499 1/K	0.000494 1/K	0.00049 1/K	0.000486 1/K

CCCC[n+]1ccn(C)c1.O=S(=O)([N-]S(=O)(=O)C(F)(F)F)C(F)(F)F
isobaric coefficient of expansion
Details	5000 kPa	10000 kPa	15000 kPa	20000 kPa	25000 kPa	30000 kPa	35000 kPa	40000 kPa	45000 kPa	50000 kPa
278.15 K	0.000672 1/K	0.000661 1/K	0.000651 1/K	0.000643 1/K	0.000632 1/K	0.000627 1/K	0.000618 1/K	0.000612 1/K	0.000602 1/K	0.000594 1/K
288.15 K	0.000665 1/K	0.000656 1/K	0.000646 1/K	0.000638 1/K	0.000632 1/K	0.000622 1/K	0.000615 1/K	0.000606 1/K	0.000599 1/K	0.000594 1/K
298.15 K	0.000662 1/K	0.000653 1/K	0.000642 1/K	0.000633 1/K	0.000626 1/K	0.000616 1/K	0.000607 1/K	0.000599 1/K	0.000592 1/K	0.000586 1/K
308.15 K	0.000657 1/K	0.000647 1/K	0.000636 1/K	0.000627 1/K	0.000617 1/K	0.00061 1/K	0.000602 1/K	0.000595 1/K	0.000586 1/K	0.000578 1/K
318.15 K	0.00065 1/K	0.000646 1/K	0.000634 1/K	0.000623 1/K	0.000614 1/K	0.000605 1/K	0.000597 1/K	0.000588 1/K	0.000581 1/K	0.000573 1/K
328.15 K	0.000665 1/K	0.000649 1/K	0.000636 1/K	0.000625 1/K	0.000614 1/K	0.000603 1/K	0.000595 1/K	0.000582 1/K	0.000578 1/K	0.000569 1/K
338.15 K	0.000646 1/K	0.000635 1/K	0.000625 1/K	0.000615 1/K	0.000605 1/K	0.000597 1/K	0.000587 1/K	0.00058 1/K	0.000573 1/K	0.000566 1/K
348.15 K	0.000653 1/K	0.000639 1/K	0.000623 1/K	0.000613 1/K	0.000604 1/K	0.000595 1/K	0.000586 1/K	0.000578 1/K	0.000569 1/K	0.000563 1/K

CCCCn1cc[n+](C)c1.O=S(=O)([O-])C(F)(F)F [1-butyl-3-methylimidazolium trifluoromethanesulfonate]
isobaric coefficient of expansion
Details	5000 kPa	10000 kPa	15000 kPa	20000 kPa	25000 kPa	30000 kPa	35000 kPa	40000 kPa	45000 kPa	50000 kPa
278.15 K	0.000621 1/K	0.000612 1/K	0.000603 1/K	0.000599 1/K	0.00059 1/K	0.000585 1/K	0.000579 1/K	0.000575 1/K	0.000566 1/K	0.000561 1/K
288.15 K	0.000617 1/K	0.000607 1/K	0.000599 1/K	0.000593 1/K	0.000588 1/K	0.00058 1/K	0.000574 1/K	0.000566 1/K	0.000561 1/K	0.000558 1/K
298.15 K	0.00061 1/K	0.000604 1/K	0.000595 1/K	0.000588 1/K	0.000581 1/K	0.000574 1/K	0.000566 1/K	0.000559 1/K	0.000554 1/K	0.000549 1/K
308.15 K	0.000606 1/K	0.000597 1/K	0.000587 1/K	0.000581 1/K	0.000574 1/K	0.000568 1/K	0.000562 1/K	0.000556 1/K	0.000548 1/K	0.000543 1/K
318.15 K	0.0006 1/K	0.000595 1/K	0.000585 1/K	0.000579 1/K	0.000571 1/K	0.000564 1/K	0.000557 1/K	0.000551 1/K	0.000544 1/K	0.000539 1/K
328.15 K	0.000596 1/K	0.000586 1/K	0.000581 1/K	0.000574 1/K	0.000565 1/K	0.000559 1/K	0.000552 1/K	0.000544 1/K	0.000538 1/K	0.000534 1/K
338.15 K	0.000594 1/K	0.000585 1/K	0.000578 1/K	0.000571 1/K	0.000562 1/K	0.000556 1/K	0.000548 1/K	0.000542 1/K	0.000537 1/K	0.000532 1/K
348.15 K	0.000591 1/K	0.000583 1/K	0.000574 1/K	0.000568 1/K	0.000559 1/K	0.000552 1/K	0.000547 1/K	0.00054 1/K	0.000535 1/K	0.00053 1/K

Source: the NIST ThermoML archive (doi:10.1021/je900407u)
